# According to patent US12121510B2 (Cedars-Sinai Medical Center, priority 2016, dated 2024):
# Like-named read-outs stand apart in the source and are kept apart here.
# Assays:
# CA-46 = assay: Lymphoma cell growth IC50 (MTT); format: cell-based, human
# Description: (§1) Exemplary Embodiments are generally performed as follows, unless otherwise noted. Simvastatin is purchased from Ark Pharm, Inc. (Arlington Heights, IL). Cisplatin (CIS) is purchased from MedKoo Biosciences, Inc. (Chapel Hill, NC). Dihydroartemisinin is purchased from TCI America (Portland, OR). All other chemicals and reagents are purchased from standard sources such as Sigma-Aldrich and/or VWR and are of highest quality available. Puromycin dihydrochloride was purchased from Alfa Aesar (Tewksbury, MA). Deionized water ([…]) used for making solutions is obtained from Milli-Q Direct Ultrapure Water System from Millipore (Billerica, MA, USA). All intermediates are characterized by 1H NMR and mass analysis and the purity of compounds are analyzed by HPLC. 1H NMR data are collected on Bruker 400 MHz spectrometers using standard parameters; chemical shifts are reported in ppm (δ) in reference to residual non-deuterated solvent. ESI mass spectroscopy analysis is performed using a Thermo Fisher LTQ Orbitrap Elite system. IC50 is the half maximal inhibitory concentration and determined is determined by crystal violet assay unless otherwise noted.
# (§2) The crystal violet assay is performed as follows, unless otherwise noted. Cell lines are supplemented with RPMI 1640 medium, 10% fetal bovine serum, 1% PenStrep, and placed in a humidified atmosphere containing 5% CO2 at 37° C. 5,000 cells/well renal cancer cells and 10,000 cells/well lymphoma cells are seeded in 96 well plates in 100 microliter medium/per well for 24 h. […] Renal cancer cells are fixed with 3.7% paraformaldehyde for 15 minutes and are stained with Crystal violet solution (0.5% in 25% methanol) for 30 minutes. After rinsing with water cell layers are dried and decolorized with Sorenson citrate with shaking for 20 minutes. Light absorption of the extracted supernatant is read at 595 nm. Lymphoma cell growth was evaluated using MTT and cells are incubated for 4 hours. 100 microliters of isopropanol is added, and the extracted supernatant fraction is read at absorption maximum of 595 nm.
# (§3) Standard cell culture conditions typically are RPMI 1640 medium, 10% fetal bovine serum, 1% PenStrep, and are performed in a humidified atmosphere containing 5% CO2 at 37° C. Generally, 5,000 cells/well-10,000 cells/well are seeded in 96 well plates in 100 microliter medium/per well for 24 h, or as described in Example 16, unless otherwise noted. Certain cells require specialized media, growth factors, antibiotics, or culture condition adjustments, as will be apparent to a person of ordinary skill in the art.
# as §2, with “Cell” for “The crystal violet assay is performed as follows, unless otherwise noted. Cell”, “cultured as follows. […]” for “supplemented with RPMI 1640 medium, 10% fetal bovine serum, 1% PenStrep, and placed in a humidified atmosphere containing 5% CO2 at 37° C.”, “is” for “was”
# Namalwa = assay: Lymphoma cell growth IC50 (MTT); format: cell-based, human
# Description: as §1, §2, §3
# as §2, with “Cell” for “The crystal violet assay is performed as follows, unless otherwise noted. Cell”, “cultured as follows. […]” for “supplemented with RPMI 1640 medium, 10% fetal bovine serum, 1% PenStrep, and placed in a humidified atmosphere containing 5% CO2 at 37° C.”, “is” for “was”
# Raji = assay: Lymphoma cell growth IC50 (MTT); format: cell-based, human
# Description: as §1, §2, §3
# as §2, with “Cell” for “The crystal violet assay is performed as follows, unless otherwise noted. Cell”, “cultured as follows. […]” for “supplemented with RPMI 1640 medium, 10% fetal bovine serum, 1% PenStrep, and placed in a humidified atmosphere containing 5% CO2 at 37° C.”, “is” for “was”
# Ramos = assay: Lymphoma cell growth IC50 (MTT); format: cell-based, human
# Description: as §1, §2, §3
# as §2, with “Cell” for “The crystal violet assay is performed as follows, unless otherwise noted. Cell”, “cultured as follows. […]” for “supplemented with RPMI 1640 medium, 10% fetal bovine serum, 1% PenStrep, and placed in a humidified atmosphere containing 5% CO2 at 37° C.”, “is” for “was”
# Daudi = assay: Lymphoma cell growth IC50 (MTT); format: cell-based, human
# Description: as §1, §2, §3
# as §2, with “Cell” for “The crystal violet assay is performed as follows, unless otherwise noted. Cell”, “cultured as follows. […]” for “supplemented with RPMI 1640 medium, 10% fetal bovine serum, 1% PenStrep, and placed in a humidified atmosphere containing 5% CO2 at 37° C.”, “is” for “was”
# HepG2 = assay: Cancer cell growth IC50 (crystal violet); format: cell-based; conditions: Example 15
# Description: as §1, §2, §3
# PC3 = assay: Cancer cell growth IC50 (crystal violet); format: cell-based; conditions: Example 15
# Description: as §1, §2, §3
# LNCaP = assay: Cancer cell growth IC50 (crystal violet); format: cell-based; conditions: Example 15
# Description: as §1, §2, §3
# ARCaP-M = assay: Cancer cell growth IC50 (crystal violet); format: cell-based; conditions: Example 15
# Description: as §1, §2, §3
# CAOV-3 = assay: Cancer cell growth IC50 (crystal violet); format: cell-based; conditions: Example 15
# Description: as §1, §2, §3
# MCF-7 = assay: Cancer cell growth IC50 (crystal violet); format: cell-based; conditions: Example 15
# Description: as §1, §2, §3
# FUOV-1 = assay: Cancer cell growth IC50 (crystal violet); format: cell-based; conditions: Example 15
# Description: as §1, §2, §3
# C4-2B = assay: Cancer cell growth IC50 (crystal violet); format: cell-based; conditions: Example 15
# Description: as §1, §2, §3
# C4-2 = assay: Cancer cell growth IC50 (crystal violet); format: cell-based; conditions: Example 15; C4-2
# Description: as §1, §2, §3
# PC3M = assay: Cancer cell growth IC50 (crystal violet); format: cell-based; conditions: Example 15
# Description: as §1, §2, §3
# U87 = assay: Cancer cell growth IC50 (crystal violet); format: cell-based; conditions: Example 15
# Description: as §1, §2, §3
# ARCaP-E = assay: Cancer cell growth IC50 (crystal violet); format: cell-based; conditions: Example 15
# Description: as §1, §2, §3
# H358 = assay: Cancer cell growth IC50 (crystal violet); format: cell-based; conditions: Example 15
# Description: as §1, §2, §3
# A549 = assay: Cell proliferation IC50, Crystal Violet assay; format: cell-based, human; conditions: 72 h
# 95D = assay: Cell proliferation IC50, Crystal Violet assay; format: cell-based, human; conditions: 95D (Met); 72 h; single agent; mean ± SEM
# Description: as §1
# (§4) H446 is a SCLC cell line. […] Drugs tested and compared include CIS and DZ-CIS ester. Each drug is used as single agent.
# YTMLC = assay: Cell proliferation IC50, Crystal Violet assay; format: cell-based, human; conditions: 72 h, single agent, mean ± SEM
# Description: as §1, §4
# 95C = assay: Cell proliferation IC50, Crystal Violet assay; format: cell-based, human; conditions: 95C (Non-Met); 72 h; single agent; mean ± SEM
# Description: as §1, §4
# H446 = assay: Cell proliferation IC50, Crystal Violet assay; format: cell-based, human; conditions: SCLC H446; 72 h; single agent; mean ± SEM
# Description: as §1, §4
# Namalwa xenograft tumors = assay: Burkitt lymphoma xenograft tumor growth; format: in vivo; conditions: Example 5; NCr Nu/Nu (10 μM) and NOD-SCID (5 μM) mice; 2 times a week; versus CIS or vehicle, p<0.05
# Method: Representative results are illustrated in FIG. 5. DZ-CIS is administered to tumors as follows. 15 mice each (NCr Nu/Nu, right panel of FIG. 5, and NOD-SCID, left panel) are injected with Human Burkitt lymphoma cell line, Namalwa cells (10^3), producing 4 xenograft tumors per mouse.
# [1] = 72 hours, read-out: Half maximal inhibitory concentration (IC50)
structure (smiles),measurement,setting,value
"N.N.[Cl][Pt][Cl] [CIS, cis-diamminedichloridoplatinum (II)]",IC50,"CA-46; CA-46, 72 hours, read-out: Half maximal inhibitory concentration (IC50)",> 64 µM
same,IC50,"CA-46; Example 15, CA46, read-out: IC50",> 64 µM
same,IC50,Namalwa; [1],> 64 µM
same,IC50,"Namalwa; Example 15, read-out: IC50",> 64 µM
same,IC50,Raji; [1],> 64 µM
same,IC50,"Raji; Example 15, read-out: IC50",> 64 µM
same,IC50,Ramos; [1],> 64 µM
same,IC50,"Ramos; Example 15, read-out: IC50",> 64 µM
same,IC50,Daudi; [1],> 64 µM
same,IC50,"Daudi; Example 15, read-out: IC50",> 64 µM
same,IC50,HepG2,> 64 µM
same,IC50,PC3,48.7 µM
same,IC50,LNCaP,> 64 µM
same,IC50,ARCaP-M,> 64 µM
same,IC50,CAOV-3,13.4 µM
same,IC50,MCF-7,39.5 µM
same,IC50,FUOV-1,27.5 µM
same,IC50,C4-2B,> 64 µM
same,IC50,C4-2,> 64 µM
same,IC50,PC3M,> 64 µM
same,IC50,U87,> 64 µM
same,IC50,ARCaP-E,> 64 µM
same,IC50,H358,> 64 µM
same,IC50,"A549; A549 parental, single agent, mean ± SEM, read-out: IC50",26 ± 1.2 µM
same,IC50,"A549; read-out: IC50 of CIS, Mean, A549, CIS alone",26 µM
same,IC50,95D,> 100 µM
same,IC50,YTMLC,16.2 ± 1 µM
same,IC50,95C,12.7 ± 1 µM
same,IC50,H446,107.3 ± 1 µM
same,"Tumor volume, Namalwa xenograft",Namalwa xenograft tumors,not CIS alone
